Test results reported in patent publication US8907153B2, “Adhesive peel-forming formulations for dermal delivery of drugs and methods of using the same” (Nuvo Research Inc., priority 2004, dated 2014).
Where two headings read alike, the source gives them in different places.

Conditions: hairless mouse skin, 35° C., mean and SD of three

- Average flux (steady-state flux of ropivacaine) (saturated in Glycerin): 1.2 ± 0.7 mcg/cm^2/h
- Average flux (steady-state flux of ropivacaine) (saturated in ISA (isostearic acid)): 11 ± 2 mcg/cm^2/h
- Average flux (steady-state flux of ropivacaine) (saturated in Mineral Oil): 8.9 ± 0.6 mcg/cm^2/h
- Average flux (steady-state flux of ropivacaine) (saturated in Span 20): 26 ± 8 mcg/cm^2/h
- Average flux (steady-state flux of ropivacaine) (saturated in Tween 20): 2.4 ± 0.1 mcg/cm^2/h
Structure (SMILES): CCCN1CCCC[C@H]1C(=O)Nc1c(C)cccc1C [Ropivacaine]
